Where two headings read alike, the source gives them in different places.
Assays:
[1] = for oxygen transported to the tissues: cardiac flow of 1 l/min
Description: At sea level, (non humidified) room air contains 21% O2 which translates into an oxygen partial pressure of 160 mm Hg [0.21*760 mm Hg)]. However, the body mean tissue oxygen levels are much lower than this level. Alveolar air contains 14% oxygen (106 mm Hg), arterial oxygen concentration is 12% (91 mm Hg), venous oxygen levels are 5.3% (40 mm Hg), and mean tissue intracellular oxygen concentration is only 3% (22 mm Hg (Guyton, and Hall, 1996). Furthermore, direct microelectrode measurements of tissue O2 reveal that parts of the brain normally experience O2 levels considerably lower than total body mean tissue oxygen levels, reflecting the high oxygen utilization in brain. These studies also highlight considerable regional variation in average brain oxygen levels (Table 1) that have been attributed to local differences in capillary density. Mean brain tissue oxygen concentration in adult rates is 1.5% (Silver and Erecinska, 1988), and mean fetal sheep brain oxygen tension has also been estimated at 1.6% (Koos and Power, 1987).
If we inspire air at normal pressure of 760 mm Hg (O221%) alveolar oxygen content will be 14% (106 mm Hg) and arterial oxygen content 12% (91 mm Hg). However arterial oxygen content includes oxygen content in the Hemoglobin plus oxygen absorbed in the plasma. (Mathews and Van Holde, 2002)
Oxygen content in the Hemoglobin (ml/dL)=Hb (g/dL)*% Sat.*[…]
At 100 mmHg oxygen pressure and 100% Hemoglobin saturation Oxygen content in the arterial blood is 20.7 ml/dL
If we consider a normal cardiac flow of 1 l/min, oxygen transported to the tissues would be […] or 0.924 mol-g of oxygen (5.57*10^23 molecules of oxygen/min.).
If we inspire oxygen enriched air of 31% O2, arterial pressure of oxygen would be (31/21)*100=147 mm Hg
Also oxygen content at the brain tissue will be:
Oxygen content in the arterial blood=Oxygen in Hemoglobin+Oxygen absorbed in the plasma
If we inspire oxygen of 95% O2, arterial pressure of oxygen would be (95/21)*100=452 mm Hg

[2] = tested on: PD, AD, ALS, Arthritis, Lymphedema, and Depression patients
Procedure: In our therapy the oxygen pulses are administered in consonance with the advance of the neurodegenerative diseases (PD, AD, ALS, MS, Arthritis, Lymphedema and Depression) as described as follow: • a. At the beginning of the neurodegenerative disease with the apparition of the first symptoms using procedure 1 or 2 twice a day for 5 days. • b. When the neurodegenerative disease has been detected, with a medical diagnostic, using procedure 1 or 2 four times a day for 10 days. • c. With an advanced neurodegenerative disease using procedure 1 or 2 eight times a day for 10 days

Parkinson Disease = tested on: Parkinson Disease
Procedure: (§1) The pulse oxygen therapy as described therein for treating neurodegenerative diseases (PD, AD, ALS, MS, Arthritis, Lymphedema and Depression) to patients with mild, moderate, severe, or critical conditions may be applied as follow: • 1. […] Patients must have comfortable accommodation (temperature, illumination and sanitary conditions). • 2. As prophylactic treatment (elder patients and/or with chronic diseases) treat patients with 6 l/min oxygen flow for 60 min once a day during 5 days. • 3. As treatment for patients with mild disease (initial symptoms) treat patients with 6 l/min oxygen flow for 60 min once a day during 10 days. • 4. As treatment for patients with moderate disease treat patients with 6 l/min oxygen flow for 60 min twice a day during 10 days. • 5. As treatment for patients with severe disease treat patients with 6 l/min oxygen flow for 60 min four time a day during 10 days. • 6. As treatment for patients with critical disease treat patients with 6 l/min oxygen flow for 60 min every 3 hours during 10 days.

Lymphedema = conditions: method No 4
Procedure: as §1

Depression = conditions: method No 4
Procedure: as §1

Arthritis = conditions: method No 4
Procedure: as §1

## O=O [oxygen]
[1]; 31% O2 inspired
  additional flow of oxygen: 0.15 L/min
  increase of the oxygen transport to the tissues: 0.72%
  oxygen transported to the tissues: 20.85 l Oxygen/min
[1]; 31% O2 inspired, 147 mm Hg
  Oxygen content in the arterial blood: 20.85 ml/dL
[1]; 31% oxygen inspired
  Oxygen at the brain level, Cortex (gray): 3.69-7.79 % O2
  Oxygen at the brain level, Cortex (white): 1.17-3.0 % O2
  Oxygen at the brain level, Hippocampus: 3.8-5.7 % O2
  Oxygen at the brain level, Hypothalamus: 2.0-3.0 % O2
  Oxygen at the brain level, Pons, fornix: 0.14-0.58 % O2
[1]; 95% O2 inspired
  additional flow of oxygen: 1.4 L/min
  increase of oxygen flow to the tissues: 6.76%
  oxygen transported to the tissues: 21.80 l Oxygen/min
[1]; 95% O2 inspired, 452 mm Hg
  Oxygen content in the arterial blood: 21.80 ml/dL
[1]; 95 % oxygen inspired
  Oxygen at the brain level, Cortex (gray): 11.3-23.8 % O2
  Oxygen at the brain level, Cortex (white): 3.58-9.18 % O2
  Oxygen at the brain level, Hippocampus: 11.6-17.4 % O2
  Oxygen at the brain level, Hypothalamus: 6.12-9.18 % O2
  Oxygen at the brain level, Pons, fornix: 0.42-1.77 % O2
[1]; oxygen enriched air of 31% O2 inspired
  arterial pressure of oxygen: 147 mm Hg
[1]; oxygen of 95% O2 inspired
  arterial pressure of oxygen: 452 mm Hg
[2]
  use of the therapy in patients: satisfactory used
Parkinson Disease; after 12 months, method No 4
  symptoms at follow-up: no AD symptoms has developed
Parkinson Disease; patient, moderate conditions, method No 4: 6 l/min oxygen flow 60 min twice a day during 10 days
  time to recovery: 5 days
Lymphedema; after 11 months
  limbs inflammation at follow-up: no limbs inflammation has developed
Lymphedema; after 10 days
  outcome after 10 days: a notable recuperation takes place
Lymphedema; person, severe limbs inflammation after cancer radiotherapy
  time to begin of recovery: 5 days
Depression; after 11 months
  Depression at follow-up: no more Depression has been detected
Depression; after 10 days
  outcome after 10 days: a notable recuperation takes place
Depression; person, severe Depression
  time to begin of recovery: 5 days
Arthritis; after 12 months
  deformation at follow-up: no more deformation has been observed
Arthritis; after 10 days
  outcome after 10 days: a notable recuperation takes place
Arthritis; person, severe deformation in hands
  time to begin of recovery: 5 days
